Results reported in US20260001863A1, “NOVEL PYRIDAZINES” (Boehringer Ingelheim International GmbH, priority 2019, published 2026).

Key:
[1] = target: Human ATX (Homo sapiens (Human), UniProt Q13822); assay: Assay A: Biochemical ATX Assay; settings: 5 nM recombinant ATX, 18:1 LPC substrate, 2 h at room temperature, formation of 18:1 LPA by RapidFire MS
Procedure: 5 nM recombinant ATX (Cayman Chemicals) was supplemented to 50 mM Tris buffer (pH 8.0) containing 3 mM KCl, 1 mM CaCl2, 1 mM MgCl2 0.14 mM NaCl, and 0.1% bovine serum albumin. Test compounds were dissolved in DMSO and tested in the range of 0.1 nM to 10 μM. The enzymatic reaction (22.5 μL) was started by addition of 2.5 μL 10 μM 18:1 LPC (Avanti Lipids, Alabaster, AL, USA). After 2-h incubation at room temperature, the reaction was stopped by addition of 20 μL water containing 500 nM 20:4 LPA as internal standard and 100 μL 1-butanol for extracting LPA. Subsequently, the plates were centrifuged at 4000 rpm, 4° C., for 2 min. The resultant upper butanol phase was directly used for injection at a RapidFire system (Agilent).
The RapidFire autosampler was coupled to a binary pump (Agilent 1290) and a Triple Quad 6500 (ABSciex, Toronto, Canada). […] 1 The MS was operated in negative mode with a source temperature of 550° C., curtain gas=35, gas 1=65, and gas 2=80. The following transitions and MS parameters (DP: declustering potential and CE: collision energy) for the respective LPAs were determined: • 18:1 LPA at 435.2/152.8, DP=−40, CE=−28 and 20:4 LPA at 457.2/152.8, DP=−100, CE=−27).
The formation of 18:1 LPA was monitored and evaluated as ratio to 20:4 LPA.

[2] = tested on: plasma LPA; assay: Assay C: In Vivo (plasma LPA reduction after oral dosing); settings: rats, oral 5 mg/kg, plasma 8 hours post application vs baseline; sum of LPA 16:0, 18:0, 18:1, 18:2, 20:4
Procedure: The test substance was solubilized in 0.5% natrosol supplemented with 0.015% Tween 80 for oral application to rats at a dose of 5 mg/kg. Blood samples were collected before compound administration and 8 hours post application on ice using EDTA as coagulation agent. Subsequently, plasma was prepared by centrifugation and stored until analysis at −20° C.
LPAs from plasma samples were extracted by using the procedure described by Scherer et al. (Clinical chemistry 2009, 55, 1218-22). 35 μL of heparinized plasma was mixed with 200 μL 40 mM disodium hydrogen phosphate buffer containing 30 mM citric acid (pH 4) and 1 μM 17:0 LPA (internal standard). Subsequently, 500 μL butanol was added and shaken vigorously for 10 min. Samples were centrifuged afterwards at 4000 rpm, 4° C., for 10 min. 500 μL of the organic upper phase was transferred to a fresh 96-deep-well plate and evaporated with a gentle nitrogen flow of 15 psi for 45 min. The resultant residual was dissolved in 100 μL ethanol prior to LC-MS analysis.
A Triple Quad 6500 (ABSciex, Toronto, Canada) was equipped with an Agilent 1290 LC system (Agilent, Santa Clara, CA) a CTC autosampler and an Atlantis 50×2.1-mm, 3-μm HILIC LC column (Waters, Elstree, UK). Eluent A contained 0.2% formic acid and 50 mM ammonium formate in water, whereas eluent B consisted of 0.2% formic acid in acetonitrile. […] At 1.8 min, solvent B was set back to 95% and stayed constant for 0.7 min for re-equilibration of the column. The following LPA species were monitored (DP: declustering potential and CE: collision energy): 16:0 LPA at 409.2/152.8, DP=−150, CE=−28; 18:0 LPA at 437.3/152.8, DP=−60, CE=−28; 18:1 LPA at 435.2/152.8, DP=−40, CE=−28; 18:2 LPA at 433.2/152.8, DP=−150, CE=−28; 20:4 LPA at 457.2/152.8, DP=−100, CE=−29 and 17:0 LPA at 423.5/152.8, DP=−100, CE=−36. LPA depletion in percent was calculated based on the baseline LPA levels before test compound application. The sum of LPA refers to the species 16:0; 18:0; 18:1; 18:2 and 20:4

SMILES | IC50 [1] [nM] | LPA reduction at 8 h [2] [%]
CC(=O)N1CC2CC1CN2c1ccc(CNc2ccc(OCc3ccc(C(F)(F)F)nc3)nn2)cc1 (centres unmarked) [Example 2.23] | 3.9 | –
CC(=O)N1C[C@@H]2CN(c3ccc(CNc4ccc(OCc5ccc(C(F)(F)F)nc5)nn4)cc3)C[C@@H]2C1 [Example 2.13] | 4 | –
CC(=O)N1CC2(C1)CN(c1ccc(CNc3ccc(OCc4ccc(C(F)(F)F)nc4)nn3)cc1)C2 [Example 1.1, 1-(6-(4-(((6-((6-(trifluoromethyl)pyridin-3-yl)methoxy)pyridazin-3-yl)amino)methyl)phenyl)-2,6-diazaspiro[3.3]heptan-2-yl)ethan-1-one] | 3.4 | 96.5
CC(=O)N1CC[C@@H]2CN(c3ccc(CNc4ccc(OCc5ccc(C(F)(F)F)nc5)nn4)cc3)C[C@@H]2CC1 [Example 4, 1-[(3aR,8aS)-2-(4-{[(6-{[6-(trifluoromethyl)pyridin-3-yl]methoxy}pyridazin-3-yl)amino]methyl}phenyl)-decahydropyrrolo[3,4-d]azepin-6-yl]ethan-1-one] | 8.6 | –
O=C(NC[C@@H]1[C@H]2CN(C(=O)OCc3cc(C(F)(F)F)cc(C(F)(F)F)c3)C[C@@H]12)c1ccc2[nH]nnc2c1 [reference compound] | – | 40.7
CC(=O)N1CCN(c2ccc(CNc3ccc(OCc4ccc(C(F)F)nc4)nn3)cc2)CC1(C)C [Example 1.7] | 1.6 | –
FC(F)c1ccc(COc2ccc(NCc3ccc(N4CCN(C5COC5)CC4)cc3)nn2)cn1 [Example 2.10] | 1.8 | –
CC(=O)N1CCC2(CC1)CN(c1ccc(CNc3ccc(OCc4ccc(C(F)F)nc4)nn3)cc1)C2 [Example 1.6] | 6.5 | –
CCc1nc2c(C)cc(N3CCN(CC(=O)N4CC(O)C4)CC3)cn2c1N(C)c1nc(-c2ccc(F)cc2)c(C#N)s1 [Example 2 in WO2014/139882, reference compound] | – | 58.1
CC(=O)N1CCN(c2ccc(CNc3ccc(OCc4ccc(C(F)F)nc4)nn3)nc2)CC1 [Example 2.4] | 1.9 | –
CC(=O)N1CCC2(CC1)CN(c1ccc(CNc3ccc(OCc4ccc(C(F)F)nc4)nn3)nc1)C2 [Example 2.16] | 10.4 | –
CC(=O)N(C)C1CCN(c2ccc(CNc3ccc(OCc4ccc(C(F)(F)F)nc4)nn3)cc2)CC1 [Example 2.1, N-methyl-N-[1-(4-{[(6-{[6-(trifluoromethyl)pyridin-3-yl]methoxy}pyridazin-3-yl)amino]methyl}phenyl)piperidin-4-yl]acetamide] | 2.3 | –
CC(=O)N1CCN(c2ccc(CNc3ccc(OCc4ccc(C(F)F)nc4)nn3)cn2)CC1 [Example 2.3] | 2.2 | –
CC(=O)N1CCC2(CC1)CN(c1ccc(CNc3ccc(OCc4ccc(C(F)F)nc4)nn3)cn1)C2 [Example 2.18] | 9.2 | –
CN1CC2(CC1=O)CN(c1ccc(CNc3ccc(OCc4ccc(C(F)F)nc4)nn3)cc1)C2 [Example 1.5] | 3.9 | –
CC(=O)N1CCC2(CC1)CN(c1ccc(CNc3ccc(OCc4ccc(C(F)(F)F)nc4)nn3)cn1)C2 [Example 2.17] | 5.2 | –
CC(=O)N1CCN(c2ccc(CNc3ccc(OCc4ccc(C(F)(F)F)nc4)nn3)nc2)CC1 [Example 2.15] | 2.2 | –
CC(=O)N1CCN(c2ccc(CNc3ccc(OCc4ccc(C(F)F)nc4)nn3)c(F)c2)CC1 [Example 1.4] | 3.3 | –

SMILES | IC50 [1] [nM] | LPA reduction at 8 h [2] [%]
CC(=O)N1CC2(C1)CN(c1ccc(CNc3ccc(OCc4ccc(C(F)F)nc4)nn3)cc1)C2 [Example 1.2] | 2.9 | 96.7
CC(=O)N1CCN(c2ccc(CNc3ccc(OCc4ccc(C(F)F)nc4)nn3)cc2F)CC1 [Example 1.3] | 1.5 | –
FC(F)(F)c1ccc(COc2ccc(NCc3ccc(N4CCN(C5COC5)CC4)cc3)nn2)cn1 [Example 2.8] | 2 | –
CC(=O)N1CCN(c2ccc(CNc3ccc(OCc4ccc(C(F)F)nc4)nn3)cc2)CC1 [Example 3, 1-[4-(4-{[(6-{[6-(Difluoromethyl)pyridin-3-yl]methoxy}pyridazin-3-yl)amino]methyl}-phenyl)piperazin-1-yl]ethan-1-one] | 2.9 | 99.9
CC(=O)N1CCN(c2ccc(CNc3ccc(OCc4ccc(C(F)(F)F)nc4)nn3)cn2)CC1 [Example 2.5] | 2.5 | 95.9
CC(=O)N1CCC2(CC1)CN(c1ccc(CNc3ccc(OCc4ccc(C(F)(F)F)nc4)nn3)cc1)C2 [Example 2.22] | 6.2 | –
CC(=O)N1CC2CCC1CN2c1ccc(CNc2ccc(OCc3ccc(C(F)(F)F)nc3)nn2)cc1 (centres unmarked) [Example 2.20] | 2.9 | –
CC(=O)N1CC2(C1)CN(c1ccc(CNc3ccc(OCc4ccc(C(F)(F)F)nc4)nn3)c(F)c1)C2 [Example 2.21] | 2.4 | –
CC(=O)N1CCN(c2ccc(CNc3ccc(OCc4ccc(C(F)(F)F)nc4)nn3)cc2)CC1 [Example 2.2] | 3 | 94.1
CC(=O)N1C[C@@H]2[C@H](C1)[C@H]1CN(c3ccc(CNc4ccc(OCc5ccc(C(F)(F)F)nc5)nn4)cc3)C[C@@H]21 [Example 5, 1-((3aR,3bS,6aR,6bS)-5-(4-(((6-((6-(trifluoromethyl)pyridin-3-yl)methoxy)pyridazin-3-yl)amino)methyl)phenyl)octahydrocyclobuta[1,2-c:3,4-c′]dipyrrol-2(1H)-yl)ethan-1-one] | 7 | –
CC(=O)N1C[C@@H]2CN(c3ccc(CNc4ccc(OCc5ccc(C(F)F)nc5)nn4)cc3)C[C@@H]2C1 [Example 2.14] | 4.4 | –
CC(=O)N1CC2CCC(C1)N2c1ccc(CNc2ccc(OCc3ccc(C(F)(F)F)nc3)nn2)cc1 [Example 2.19] | 2.4 | –
CC(=O)N1CCN(c2ccc(CNc3ccc(OCc4cnc(C(F)F)c(F)c4)nn3)cc2)CC1 [Example 2.12] | 3.5 | 94.6
CC(=O)N1CCN(c2ccc(CNc3ccc(OCc4ccc(C(F)F)nc4)nn3)c(C(F)(F)F)c2)CC1 [Example 2.7] | 1.9 | –
CC(=O)N1CC2(C1)CN(c1ccc(CNc3ccc(OCc4ccc(C(F)(F)F)nc4)nn3)cc1F)C2 [Example 2.9] | 3.7 | –
CC(=O)N1CC2CC1CN2c1ccc(CNc2ccc(OCc3ccc(C(F)F)nc3)nn2)cc1 (centres unmarked) [Example 2.6] | 1.8 | –
CC(=O)N[C@H]1[C@@H]2CN(c3ccc(CNc4ccc(OCc5ccc(C(F)(F)F)nc5)nn4)cc3)C[C@@H]21 [Example 2.11] | 3.8 | –
